Results reported in patent US20140315991A1, “COMPOSITION FOR TREATMENT OF EPITHELIAL TISSUE” (NOVODERMIX INTERNATIONAL LIMITED, priority 2008, published 2014).

Test system: mature atrophic post-Acne facial scarring
Assay: randomized, triple-blind study in mature atrophic post-Acne facial scarring (Example 7)
Assay type: in vivo, human
Parameters: transient reduction in vision (adverse event, one patient): unit not given here
Procedure: A randomized, triple-blind study was conducted on 35 patients in two sites in India (Amritsar and Faridkot). Ethnic skin patients (Fitzpatrick 4-5) with mature atrophic post-Acne facial scarring (scar age >2 years) were randomly assigned to one of four study arms: topical Topiramate 5.0% (n=10), topical Topiramate 2.5% (n=9), oral Topiramate 25 mg (n=8) and topical placebo (n=7). Patients applied the topical formulation once a day on both cheeks for 3 months. Clinical assessment was performed at 6 weeks and 3 months using a visual analog scale (VAS) by the patients and 3 independent observers (2 plastic surgeons and 1 general surgeon) who scored side-by-side cheek photos (before and after treatment).
Thirty five patients completed the study, and a total of 57 cheeks (topical Topiramate 5%—n=18; topical Topiramate 2.5%—n=19; oral Topiramate—n=13; topical Placebo—n=7) were evaluated and scored.

## CC1(C)O[C@@H]2[C@@H](CO[C@@]3(COS(N)(=O)=O)OC(C)(C)O[C@@H]23)O1 [Topiramate]
Day 42
  advantage of the study group over the control (topical placebo): 95%
Day 42, once a day
  improvement (visual analog scale, patients and 3 independent observers): 13.91%
Day 90
  advantage of the study group over the control (topical placebo): 102%
Day 90, once a day
  improvement (visual analog scale, patients and 3 independent observers): 34.69%
From 20/20, within 2 days from starting 25 mg oral, returned to 20/20 within 7 days from stopping
  transient reduction in vision (adverse event, one patient): −5.00
